According to EP3046573B1, “AMYLIN ANALOGUES” (Zealand Pharma A/S, priority 2013, dated 2015):
Where two headings read alike, the source gives them in different places. Numbered stars: 1 amine (or outer) side, 2 acyl side, 3 side chain; on linkers, the order of the positions; unused ones are H or OH. Bridge positions count the residues as written; N and C are the ends. Square brackets hold non-standard residues; d marks the D form. Peptide text beside a SMILES is read from it. * marks the point of attachment. C20 diacid = O=C(O)CCCCCCCCCCCCCCCCCCC(=O)*; γGlu = O=C(O)[C@H](CCC(=O)[*:2])N[*:1]; NMeI = CC[C@H](C)[C@H](NC)C(=O)O; NMeA = CN[C@@H](C)C(=O)O; Sar = CNCC(=O)O

Tests used:
[1] = molecular target: T1, human calcitonin receptor (hCTR2) (Homo sapiens, UniProt P30988); assay: hCTR2 assay: induction of cAMP (AlphaScreen cAMP Assay kit) in COS7 cells expressing hCTR2; assay type: cell-based
T1 construct: expressed in transfected cells
T1 sequence (P30988 25-474): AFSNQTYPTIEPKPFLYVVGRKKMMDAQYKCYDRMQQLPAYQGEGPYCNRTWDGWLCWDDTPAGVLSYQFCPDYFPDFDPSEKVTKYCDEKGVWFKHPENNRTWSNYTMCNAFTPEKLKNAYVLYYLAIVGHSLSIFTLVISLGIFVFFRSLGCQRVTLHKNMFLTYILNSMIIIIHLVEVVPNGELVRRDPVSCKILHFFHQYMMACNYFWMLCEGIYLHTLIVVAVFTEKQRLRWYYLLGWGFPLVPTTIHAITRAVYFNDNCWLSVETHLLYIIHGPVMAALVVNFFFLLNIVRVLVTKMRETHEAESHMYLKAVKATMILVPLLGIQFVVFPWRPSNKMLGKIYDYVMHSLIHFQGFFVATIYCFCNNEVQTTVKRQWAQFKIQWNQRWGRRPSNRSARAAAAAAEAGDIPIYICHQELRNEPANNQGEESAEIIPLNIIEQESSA
Method in brief: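 Stable RAMP-naive COS7 clone expressing hCTR2 was stimulated with increasing peptide concentrations in Tyrode buffer (pH 7.4) with 100 µM IBMX and 0.1% casein for 15 min at 37° C. Cells were lysed and cAMP measured by AlphaScreen. EC50 and efficacy relative to pramlintide came from 4PL curve fits.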

[2] = Solubility assessment (turbidity absorbance at 325 nm); assay type: physicochemical; conditions: stock 2 mg/ml diluted 1:1, ambient temperature (typically 25°C), n=1; for Solubility, Acetate buffer pH 4: 100 mM acetate buffer pH 4.0; for Solubility, Acetate buffer pH 5: 100 mM acetate buffer pH 5.0; for Solubility, Histidine buffer pH 6: 100 mM histidine buffer pH 6.0; for Solubility, Histidine buffer pH 7: 100 mM histidine buffer pH 7.0; for Solubility, Phosphate buffer pH 6: 100 mM phosphate buffer pH 6.0; for Solubility, Phosphate buffer pH 7: 100 mM phosphate buffer pH 7.0; for Solubility, Phosphate buffer pH 7.5: 100 mM phosphate buffer pH7.5
Method in brief: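 Peptide stock (2 mg/ml, water pH 2.5) diluted 1:1 into 100 mM acetate (pH 4.0, 5.0), histidine (pH 6.0, 7.0) or phosphate (pH 6.0–7.5) buffer; absorbance at 325 nm read at about 25°C, n=1. A325 ≤ 0.02 taken as solubility ≥ 1 mg/ml.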

[3] = cAMP induction in COS7 cells expressing hCTR2, average of a minimum of 3 determinations, read-out: hCTR2 EC50

Solubility, Acetate buffer pH 4 [2] | Solubility, Acetate buffer pH 5 [2] | Solubility, Histidine buffer pH 6 [2] | Solubility, Histidine buffer pH 7 [2] | Solubility, Phosphate buffer pH 6 [2] | Solubility, Phosphate buffer pH 7 [2] | Solubility, Phosphate buffer pH 7.5 [2] | EC50 [1, 3] | SMILES | EC50 [1]
II (II indicates solubility ≤ 1 mg/ml) | II (II indicates solubility ≤ 1 mg/ml) | II (II indicates solubility ≤ 1 mg/ml) | II (II indicates solubility ≤ 1 mg/ml) | II (II indicates solubility ≤ 1 mg/ml) | II (II indicates solubility ≤ 1 mg/ml) | II (II indicates solubility ≤ 1 mg/ml) | 0.076 nM | CC[C@H](C)[C@@H](C(=O)N[C@@H](CO)C(=O)N[C@@H](CO)C(=O)N[C@H](C(=O)N[C@@H](CC(N)=O)C(=O)N[C@H](C(=O)NCC(=O)N[C@@H](CO)C(=O)N[C@@H](CC(N)=O)C(=O)N[C@H](C(=O)N1CCC[C@H]1C(N)=O)[C@@H](C)O)C(C)C)[C@@H](C)O)N(C)C(=O)CN(C)C(=O)[C@H](Cc1ccccc1)NC(=O)[C@H](CC(N)=O)NC(=O)[C@H](CC(N)=O)NC(=O)[C@H](CO)NC(=O)[C@H](CO)NC(=O)[C@H](Cc1c[nH]cn1)NC(=O)[C@H](Cc1c[nH]cn1)NC(=O)[C@H](CC(C)C)NC(=O)[C@H](Cc1ccccc1)NC(=O)[C@H](CCC(=O)O)NC(=O)[C@H](C)NC(=O)[C@H](CC(C)C)NC(=O)[C@H](CCCNC(=N)N)NC(=O)[C@H](CCC(N)=O)NC(=O)[C@@H](NC(=O)[C@H](C)NC(=O)[C@@H]1CSSC[C@H](NC(=O)[C@H](CCCNC(=N)N)NC(=O)CC[C@H](NC(=O)CCCCCCCCCCCCCCCCCCC(=O)O)C(=O)O)C(=O)N[C@@H](CC(N)=O)C(=O)N[C@@H]([C@@H](C)O)C(=O)N[C@@H](C)C(=O)N[C@@H]([C@@H](C)O)C(=O)N1)[C@@H](C)O [Compound 55, [19CD]-isoGlu-RC()NTATC()ATQRLAEFLHHSSNNF-Gly(Me)-Ile(Me)-SSTNVGSNTP-NH2] ({C20 diacid-γGlu}-RCNTATCATQRLAEFLHHSSNNF[Sar][NMeI]SSTNVGSNTP-NH2; disulfide 2-7) | –
SS (SS indicates solubility ≥ 1mg/ml) | II (II indicates solubility ≤ 1 mg/ml) | II (II indicates solubility ≤ 1 mg/ml) | II (II indicates solubility ≤ 1 mg/ml) | II (II indicates solubility ≤ 1 mg/ml) | II (II indicates solubility ≤ 1 mg/ml) | II (II indicates solubility ≤ 1 mg/ml) | 0.14 nM | CC[C@H](C)[C@@H](C(=O)N[C@@H](CC(C)C)C(=O)N[C@@H](CO)C(=O)N[C@@H](CO)C(=O)N[C@H](C(=O)N[C@@H](CC(N)=O)C(=O)N[C@H](C(=O)NCC(=O)N[C@@H](CO)C(=O)N[C@@H](CC(N)=O)C(=O)N[C@H](C(=O)N1CCC[C@H]1C(N)=O)[C@@H](C)O)C(C)C)[C@@H](C)O)N(C)C(=O)[C@H](C)NC(=O)[C@H](C)N(C)C(=O)[C@H](Cc1ccccc1)NC(=O)[C@H](CC(N)=O)NC(=O)[C@H](CC(N)=O)NC(=O)[C@H](CO)NC(=O)[C@H](CO)NC(=O)[C@H](Cc1c[nH]cn1)NC(=O)[C@H](Cc1c[nH]cn1)NC(=O)[C@H](CC(C)C)NC(=O)[C@H](Cc1ccccc1)NC(=O)[C@H](CCC(=O)O)NC(=O)[C@H](C)NC(=O)[C@H](CC(C)C)NC(=O)[C@H](CCCNC(=N)N)NC(=O)[C@H](CCC(N)=O)NC(=O)[C@@H](NC(=O)[C@H](C)NC(=O)[C@@H]1CSSC[C@H](NC(=O)[C@H](CCCNC(=N)N)NC(=O)CC[C@H](NC(=O)CCCCCCCCCCCCCCCCCCC(=O)O)C(=O)O)C(=O)N[C@@H](CC(N)=O)C(=O)N[C@@H]([C@@H](C)O)C(=O)N[C@@H](C)C(=O)N[C@@H]([C@@H](C)O)C(=O)N1)[C@@H](C)O [Compound 56, [19CD]-isoGlu-RC()NTATC()ATQRLAEFLHHSSNNF-Ala(Me)-A-Ile(Me)-LSSTNVGSNTP-NH2] ({C20 diacid-γGlu}-RCNTATCATQRLAEFLHHSSNNF[NMeA]A[NMeI]LSSTNVGSNTP-NH2; disulfide 2-7) | –
SS (SS indicates solubility ≥ 1mg/ml) | SS (SS indicates solubility ≥ 1mg/ml) | SS (SS indicates solubility ≥ 1mg/ml) | SS (SS indicates solubility ≥ 1mg/ml) | SS (SS indicates solubility ≥ 1mg/ml) | II (II indicates solubility ≤ 1 mg/ml) | SS (SS indicates solubility ≥ 1mg/ml) | 0.11 nM | CC[C@H](C)[C@@H](C(=O)N[C@@H](CC(C)C)C(=O)N[C@@H](CO)C(=O)N[C@@H](CO)C(=O)N[C@H](C(=O)N[C@@H](CC(N)=O)C(=O)N[C@H](C(=O)NCC(=O)N[C@@H](CO)C(=O)N[C@@H](CC(N)=O)C(=O)N[C@H](C(=O)N1CCC[C@H]1C(N)=O)[C@@H](C)O)C(C)C)[C@@H](C)O)N(C)C(=O)CN(C)C(=O)[C@H](Cc1ccccc1)NC(=O)[C@H](CC(N)=O)NC(=O)[C@H](CC(N)=O)NC(=O)[C@H](CO)NC(=O)[C@H](CO)NC(=O)[C@H](CCCNC(=N)N)NC(=O)[C@H](Cc1c[nH]cn1)NC(=O)[C@H](CC(C)C)NC(=O)[C@H](Cc1ccccc1)NC(=O)[C@H](CCC(=O)O)NC(=O)[C@H](C)NC(=O)[C@H](CC(C)C)NC(=O)[C@H](CCCNC(=N)N)NC(=O)[C@H](CCC(N)=O)NC(=O)[C@@H](NC(=O)[C@H](C)NC(=O)[C@@H]1CSSC[C@H](NC(=O)[C@H](CCCCN)NC(=O)CC[C@H](NC(=O)CCCCCCCCCCCCCCCCCCC(=O)O)C(=O)O)C(=O)N[C@@H](CC(N)=O)C(=O)N[C@@H]([C@@H](C)O)C(=O)N[C@@H](C)C(=O)N[C@@H]([C@@H](C)O)C(=O)N1)[C@@H](C)O [Compound 58, [19CD]-isoGlu-KC()NTATC()ATQRLAEFLHRSSNNF-Gly(Me)-Ile(Me)-LSSTNVGSNTP-NH2] ({C20 diacid-γGlu}-KCNTATCATQRLAEFLHRSSNNF[Sar][NMeI]LSSTNVGSNTP-NH2; disulfide 2-7) | –

SMILES | Solubility, Acetate buffer pH 4 [2] | Solubility, Acetate buffer pH 5 [2] | Solubility, Histidine buffer pH 6 [2] | Solubility, Histidine buffer pH 7 [2] | Solubility, Phosphate buffer pH 6 [2] | Solubility, Phosphate buffer pH 7 [2] | Solubility, Phosphate buffer pH 7.5 [2] | EC50 [1, 3] | EC50 [1]
CC[C@H](C)[C@@H](C(=O)N[C@@H](CO)C(=O)N[C@@H](CO)C(=O)N[C@H](C(=O)N[C@@H](CC(N)=O)C(=O)N[C@H](C(=O)NCC(=O)N[C@@H](CO)C(=O)N[C@@H](CC(N)=O)C(=O)N[C@H](C(=O)N1CCC[C@H]1C(N)=O)[C@@H](C)O)C(C)C)[C@@H](C)O)N(C)C(=O)[C@H](C)NC(=O)CN(C)C(=O)[C@H](Cc1ccccc1)NC(=O)[C@H](CC(N)=O)NC(=O)[C@H](CC(N)=O)NC(=O)[C@H](CO)NC(=O)[C@H](CO)NC(=O)[C@H](Cc1c[nH]cn1)NC(=O)[C@H](Cc1c[nH]cn1)NC(=O)[C@H](CC(C)C)NC(=O)[C@H](Cc1ccccc1)NC(=O)[C@H](CCC(=O)O)NC(=O)[C@H](C)NC(=O)[C@H](CC(C)C)NC(=O)[C@H](CCCNC(=N)N)NC(=O)[C@H](CCC(N)=O)NC(=O)[C@@H](NC(=O)[C@H](C)NC(=O)[C@@H]1CSSC[C@H](NC(=O)[C@H](CCCNC(=N)N)NC(=O)CC[C@H](NC(=O)CCCCCCCCCCCCCCCCCCC(=O)O)C(=O)O)C(=O)N[C@@H](CC(N)=O)C(=O)N[C@@H]([C@@H](C)O)C(=O)N[C@@H](C)C(=O)N[C@@H]([C@@H](C)O)C(=O)N1)[C@@H](C)O [Compound 54, [19CD]-isoGlu-RC()NTATC()ATQRLAEFLHHSSNNF-Gly(Me)-A-Ile(Me)-SSTNVGSNTP-NH2] ({C20 diacid-γGlu}-RCNTATCATQRLAEFLHHSSNNF[Sar]A[NMeI]SSTNVGSNTP-NH2; disulfide 2-7) | SS (SS indicates solubility ≥ 1mg/ml) | SS (SS indicates solubility ≥ 1mg/ml) | SS (SS indicates solubility ≥ 1mg/ml) | SS (SS indicates solubility ≥ 1mg/ml) | SS (SS indicates solubility ≥ 1mg/ml) | SS (SS indicates solubility ≥ 1mg/ml) | SS (SS indicates solubility ≥ 1mg/ml) | – | 0.091 nM
